Here are results for 1 compound from patent US12115208B2, “Small-molecule adjuvants for antibiotics to address antibiotic resistance” (HIGH POINT UNIVERSITY, priority 2017, dated 2024).

Usually IC50 stands for the midpoint of a concentration-inhibition curve.

Test [1] has as its system S. aureus NR-49120 biofilm. Briefly: Biofilm inhibition, crystal violet assay. The test is classed as cell-based. As to conditions: Staphylococcus aureus, NR49120BIOFILM, S. aureus NR-49120 (methicillin and vancomycin resistant), 30 h. How it is done:
(§1) A standard static crystal violet assay was used to quantify biofilm inhibition.^45 Cultures of S. aureus or S. epidermidis were grown overnight in TSBG (tryptic soy broth with 5% glucose) at 37° C. with shaking. These cultures were used to inoculate fresh TSBG to a calculated optical density of 0.01 at 600 nm (OD600). […] Untreated aliquots were used as a positive control and water served as a negative control. 100 μl of these suspensions were added to the wells of a 96-well polyvinylchloride microtiter plate. […] After incubation, media was discarded and the plates were washed with water to remove non-adherent cells. Adherent biofilms were stained with 110 μl of crystal violet (0.1% in water) and incubated at room temperature for thirty minutes. The crystal violet staining solution was discarded and plates were washed with water to remove excess stain. The resulting stained biofilms were solubilized with 200 μL of 95% ethanol for 10 minutes. 125 μl of the ethanol solutions were transferred to a clear polystyrene microtiter plate for evaluation. Absorbance at 540 nm was recorded using a BioTek Synergy H1 microplate reader. The absorbance of the negative control lanes was subtracted from the experimental values to account for background staining. Percent inhibition was calculated by comparison of the absorbance values of control versus treated wells under identical conditions.
(§2) Antibiotic resistance and biofilm formation share similar regulatory mechanisms. […] Biofilm inhibition was first assessed in S. aureus 43300, a methicillin-resistant strain (see Table 18). As described in Materials and Methods, a standard crystal violet assay was used to assess biofilm inhibition by the tested compounds. The IC50 is described as the compound concentration required to inhibit 50% of biofilm formation. The standard deviation is calculated from at least 3 independent experiments.
(§3) The biofilm inhibition activity of loratadine was further explored in other strains of S. aureus. Loratadine was capable of inhibiting biofilm formation in all tested strains of S. aureus, including methicillin-resistant and vancomycin-resistant strains.

Test [2] has as its system S. aureus USA300 biofilm. Briefly: Biofilm inhibition, crystal violet assay. The test is classed as cell-based. The note with it: Staphylococcus aureus, S. aureus USA300 (MRSA), 30 h. How it is done: as §1, §2, §3
Test [3] has as its system S. epidermidis ATCC 49461 biofilm. Nature of the test: Biofilm inhibition, crystal violet assay. It is filed as cell-based, Staphylococcus epidermidis. As to conditions: Staphylococcus epidermidis, ATCC49461, 30 h, read-out: Inhibition of biofilm formation IC50.
The subject of test [4] is MRSA 43300 biofilm. Briefly: Biofilm inhibition, crystal violet assay. The test is classed as cell-based, Staphylococcus aureus. The note with it: 30 h. The method, then: as §1, §2
Test [5] relates to S. aureus ATCC 29213. Briefly: Minimum inhibitory concentration, broth microdilution. The note with it: Staphylococcus aureus, ATCC29213; compound alone; S. aureus ATCC 29213; CAMHB, 18 h; read-out: MIC. The test is classed as cell-based. How it is done: The compounds were then analyzed for antibiotic repotentiation activity. […] The tested strains included USA300, which is a common and particularly virulent strain of community-acquired MRSA.

The subject of test [6] is S. aureus NR-49120 (VRSA). Briefly: Antibiotic repotentiation (antibiotic MIC with/without compound). It is filed as cell-based, Staphylococcus aureus. The note with it: +50 μM compound, S. aureus NR-49120 (VRSA). The method, then: (§4) The overnight culture was diluted into fresh CAMHB to a concentration of 5×10^5 CFU/ml. […] On the same plate, a standard microdilution MIC with the tested antibiotics and no added compound was also performed to compare the antibiotic MIC in the presence and absence of compound. […] Fold reductions were calculated by dividing the MIC of the antibiotic without compound by the MIC of the antibiotic in the presence of compound.

Test [7] has as its system S. aureus USA100 (MRSA). The description is as above. The note with it: +50 μM compound, S. aureus USA100 (MRSA). The test is classed as cell-based, Staphylococcus aureus. The method, then: as §4
Test [8] has as its system various S. aureus strains. Briefly: microbe, parasite or virus in culture. The note with it: Staphylococcus aureus, read-out: MICs.

In the case of `CCOC(=O)N1CCC(=C2c3ccc(Cl)cc3CCc3cccnc32)CC1` [Loratadine, ethyl 4-(8-chloro-5,6-dihydrobenzo[1,2]cyclohepta[2,4-b]pyridin-11-ylidene)piperidine-1-carboxylate], the half-maximal inhibitory concentration (IC50) came to 59.9 ± 1.29 µM in test [1]; 32.8 ± 5.9 µM in test [2]; 25.1 ± 3.65 µM in test [3]; 11.5 µM in test [4]; 11.4 µM in test [4] (Staphylococcus aureus, MRSA). For the same compound, the MIC in test [5] and in test [8] was above 200 µM in each case. Besides, the “Oxacillin MIC” value in test [6] was 16 µg/mL; in test [7] it was 0.5 µg/mL. The “Fold Reduction” value in test [6] (oxacillin MIC) stood at 8; in test [7] (oxacillin MIC) it was 512.
